Experimental data: the supplement of paper PMC11208160

assay: recombinant UMI read abundance after kanamycin selection (control-corrected) (log10(CPM+1)); higher = more efficient recombination; extreme values may be limits of the assay; sequences stand for … in AGTGCAGAGAAAATCGGCCAGTTTTCTCTGCCTGCAGTCCGCATGCCGTGGGACCCCTTGGGTTCTAACCTGTTGCCTAGATTTATGCAGCGGACTGCCTTTCTCCCAAAGTGATAAACCGG…AGGTTGGTTTCACT; site = the 11-nt donor
In short: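 In a pooled Escherichia coli screen for the IS621 bridge recombinase, donor and donor-binding-loop pairs were each placed with a 12-nt UMI on a plasmid bearing a promoterless kanamycin gene. This library was co-electroporated with a target plasmid encoding a fixed target and T7-inducible recombinase, and cells were plated either on IPTG (0.07 mM) plus kanamycin or without selection, in two replicates each. Recombinant UMIs were PCR-amplified across the donor–target junction and sequenced, and counts were converted to CPM, averaged over replicates, scaled by control-derived factors and reported as log10(CPM+1).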

Row | Sequence | recombinant UMI read abundance (log10)
1 | CTGGATACATGGACCGGTTTTCCCGGTAATCCGTATTTGTC (site CTGGATACTGA) | 1.89
2 | CTGGGACCATGGACCGGTTTTCCCGGTAATCCGTATTTGGT (site CTGGGACCTAC) | 0.0117
3 | CTGGGATCATGGACCGGTTTTCCCGGTAATCCGTATTTGCT (site CTGGGATCTAG) | 1.9
4 | CTGGGCGCATGGACCGGTTTTCCCGGTAATCCGTATTTGTA (site CTGGGCGCTTA) | 1.62
5 | CTGGTATCATGGACCGGTTTTCCCGGTAATCCGTATTTGAA (site CTAGTATCTGT) | 2.25
6 | CTGGTATCATGGACCGGTTTTCCCGGTAATCCGTATTTGAA (site CTGGTATCTTT) | 2.5
7 | CTGGTTACATGGACCGGTTTTCCCGGTAATCCGTATTTGAG (site CTGGTTACTCT) | 1.7
8 | CTGTCAGCATGGACCGGTTTTCCCGGTAATCCGTATTTGGG (site CTGTCAGCTCC) | 0.0174
9 | CTGTCCGCATGGACCGGTTTTCCCGGTAATCCGTATTTGAT (site CTGTCCGCTAT) | 1.96
10 | CTGTCGACATGGACCGGTTTTCCCGGTAATCCGTATTTGGG (site CAGTCGACTCC) | 0.00865
11 | CTGTCGACATGGACCGGTTTTCCCGGTAATCCGTATTTGGG (site CCGTCGACTCC) | 0.0205
12 | CTGTCGACATGGACCGGTTTTCCCGGTAATCCGTATTTGGG (site CGGTCGACTCC) | 0.012
13 | CTGTCGACATGGACCGGTTTTCCCGGTAATCCGTATTTGGG (site CTGTCGACTCC) | 0.0289
14 | CTGTCTACATGGACCGGTTTTCCCGGTAATCCGTATTTGTT (site CTGTCTACTAA) | 0.252
15 | CTGTGATCATGGACCGGTTTTCCCGGTAATCCGTATTTGAA (site CTGTGATCTTT) | 2.65
16 | CTGTGTGCATGGACCGGTTTTCCCGGTAATCCGTATTTGGT (site CTGTGTGCTAC) | 1.44
17 | CTGTTTGCATGGACCGGTTTTCCCGGTAATCCGTATTTGAA (site CTGTTTGCTTT) | 1.66
18 | CTTCCGACATGGACCGGTTTTCCCGGTAATCCGTATTTGGA (site CTTCCGACTTC) | 0.0169
19 | CTTCCGGCATGGACCGGTTTTCCCGGTAATCCGTATTTGAT (site CTTCCGGCTAT) | 1.14
20 | CTTCGCTCATGGACCGGTTTTCCCGGTAATCCGTATTTGTA (site CTTCACTCTTA) | 1.14
21 | CTTCGCTCATGGACCGGTTTTCCCGGTAATCCGTATTTGTA (site CTTCCCTCTTA) | 0.0134
22 | CTTCGCTCATGGACCGGTTTTCCCGGTAATCCGTATTTGTA (site CTTCGCTCTTA) | 1.8
23 | CTTCGCTCATGGACCGGTTTTCCCGGTAATCCGTATTTGTA (site CTTCTCTCTTA) | 0.00289

Row | Sequence | recombinant UMI read abundance (log10)
24 | CTTCTAACATGGACCGGTTTTCCCGGTAATCCGTATTTGGA (site CTACTAACTTC) | 0.0127
25 | CTTCTAACATGGACCGGTTTTCCCGGTAATCCGTATTTGGA (site CTCCTAACTTC) | 0.00424
26 | CTTCTAACATGGACCGGTTTTCCCGGTAATCCGTATTTGGA (site CTGCTAACTTC) | 0.00962
27 | CTTCTAACATGGACCGGTTTTCCCGGTAATCCGTATTTGGA (site CTTCTAACTTC) | 0.0115
28 | CTTCTCTCATGGACCGGTTTTCCCGGTAATCCGTATTTGAA (site CTTCTCTCTTA) | 0
29 | CTTCTCTCATGGACCGGTTTTCCCGGTAATCCGTATTTGAA (site CTTCTCTCTTC) | 0.199
30 | CTTCTCTCATGGACCGGTTTTCCCGGTAATCCGTATTTGAA (site CTTCTCTCTTG) | 0
31 | CTTCTCTCATGGACCGGTTTTCCCGGTAATCCGTATTTGAA (site CTTCTCTCTTT) | 0.96
32 | CTTGACACATGGACCGGTTTTCCCGGTAATCCGTATTTGAC (site CTTGACACTGT) | 0.445
33 | CTTGCCCCATGGACCGGTTTTCCCGGTAATCCGTATTTGTG (site CTTGCCCCTCA) | 0.0167
34 | CTTGTACCATGGACCGGTTTTCCCGGTAATCCGTATTTGAC (site CTAGTATCTGT) | 0
35 | CTTGTACCATGGACCGGTTTTCCCGGTAATCCGTATTTGAC (site CTTGTACCTGT) | 0
36 | CTTGTGGCATGGACCGGTTTTCCCGGTAATCCGTATTTGGG (site CTTGTGGCTCC) | 0.00701
37 | CTTGTTGCATGGACCGGTTTTCCCGGTAATCCGTATTTGGT (site CTTGTTGCTAC) | 1.26
38 | CTTTCGCCATGGACCGGTTTTCCCGGTAATCCGTATTTGCT (site CTTTCGCCTAG) | 0.0294
39 | CTTTCTCCATGGACCGGTTTTCCCGGTAATCCGTATTTGCT (site CTTTCTCCTAG) | 1.82
40 | CTTTGCCCATGGACCGGTTTTCCCGGTAATCCGTATTTGAG (site CTTTGCCCTCT) | 0.0229
41 | CTTTGGGCATGGACCGGTTTTCCCGGTAATCCGTATTTGTC (site CTTTGGGCTGA) | 0
42 | CTTTTGGCATGGACCGGTTTTCCCGGTAATCCGTATTTGCT (site CATTTGGCTAG) | 0
43 | CTTTTGGCATGGACCGGTTTTCCCGGTAATCCGTATTTGCT (site CCTTTGGCTAG) | 0
44 | CTTTTGGCATGGACCGGTTTTCCCGGTAATCCGTATTTGCT (site CGTTTGGCTAG) | 0.00381
45 | CTTTTGGCATGGACCGGTTTTCCCGGTAATCCGTATTTGCT (site CTTTTGGCTAG) | 0
46 | GAAAACGCATGGACCGGTTTTCCCGGTAATCCGTATTTGAA (site GAAAACGCTTT) | 2.16

Row | Sequence | recombinant UMI read abundance (log10)
47 | GAAAAGTCATGGACCGGTTTTCCCGGTAATCCGTATTTGAA (site GAAAAGTCTTT) | 2.84
48 | GAAAATTCATGGACCGGTTTTCCCGGTAATCCGTATTTGTT (site GAAAATTCTAA) | 0.97
49 | GAAAATTCATGGACCGGTTTTCCCGGTAATCCGTATTTGTT (site GAACATTCTAA) | 0
50 | GAAAATTCATGGACCGGTTTTCCCGGTAATCCGTATTTGTT (site GAAGATTCTAA) | 0.507
51 | GAAAATTCATGGACCGGTTTTCCCGGTAATCCGTATTTGTT (site GAATATTCTAA) | 1.79
52 | GAAACACCATGGACCGGTTTTCCCGGTAATCCGTATTTGTT (site GAAACACCTAA) | 0.0036
53 | GAAACCTCATGGACCGGTTTTCCCGGTAATCCGTATTTGTG (site GAAACCTCTCA) | 0.406
54 | GAAACGTCATGGACCGGTTTTCCCGGTAATCCGTATTTGGC (site GAAACGTCTGC) | 2.01
55 | GAAAGCTCATGGACCGGTTTTCCCGGTAATCCGTATTTGCG (site GAAAGCTCTCG) | 2.77
56 | GAAAGGCCATGGACCGGTTTTCCCGGTAATCCGTATTTGCA (site GAAAGGCCTTG) | 0
57 | GAAAGGCCATGGACCGGTTTTCCCGGTAATCCGTATTTGCA (site GAACGGCCTTG) | 0
58 | GAAAGGCCATGGACCGGTTTTCCCGGTAATCCGTATTTGCA (site GAAGGGCCTTG) | 0
59 | GAAAGGCCATGGACCGGTTTTCCCGGTAATCCGTATTTGCA (site GAATGGCCTTG) | 0
60 | GAAAGTCCATGGACCGGTTTTCCCGGTAATCCGTATTTGTA (site AAAAGTCCTTA) | 0
61 | GAAAGTCCATGGACCGGTTTTCCCGGTAATCCGTATTTGTA (site CAAAGTCCTTA) | 0.821
62 | GAAAGTCCATGGACCGGTTTTCCCGGTAATCCGTATTTGTA (site GAAAGTCCTTA) | 0.0817
63 | GAAAGTCCATGGACCGGTTTTCCCGGTAATCCGTATTTGTA (site TAAAGTCCTTA) | 1.01
64 | GAACGGACATGGACCGGTTTTCCCGGTAATCCGTATTTGAA (site GAACGGACTTT) | 0.965
65 | GAACTATCATGGACCGGTTTTCCCGGTAATCCGTATTTGCC (site GAACTATCTGG) | 1.78
66 | GAACTCACATGGACCGGTTTTCCCGGTAATCCGTATTTGAT (site GAACTCACTAT) | 2.08
67 | GAACTCACATGGACCGGTTTTCCCGGTAATCCGTATTTGAT (site GACCTCACTAT) | 0.375
68 | GAACTCACATGGACCGGTTTTCCCGGTAATCCGTATTTGAT (site GAGCTCACTAT) | 0
